Data taken from the supplement of paper PMC10307832.

Legend:
Assay in all cases: relative viability (nuclei count vs DMSO), 5 days (fraction); higher = more cells survive
Nelarabine + Lapatinib = compound: COc1nc(N)nc2c1ncn2[C@@H]1O[C@H](CO)[C@@H](O)[C@@H]1O [Nelarabine] + CS(=O)(=O)CCNCc1ccc(-c2ccc3ncnc(Nc4ccc(OCc5cccc(F)c5)c(Cl)c4)c3c2)o1 [Lapatinib] (partner 2 µM)
Method in brief: (§1)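 Relative viability divides the nuclei count in treated wells by that in vehicle wells. Lung cancer cell lines were seeded in 1536-well plates, dosed by pin tool the next day, and fixed and stained after 5 days in one step with final 0.05% Triton X-100, 1% formaldehyde and 1 ug/ml Hoechst. Dosing was a single drug or a fixed anchor-drug dose plus five library-drug doses (not always all listed) in √10 steps, and values are medians of duplicate plates imaged at 4×.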

Adavosertib + Tozasertib = compound: C=CCn1c(=O)c2cnc(Nc3ccc(N4CCN(C)CC4)cc3)nc2n1-c1cccc(C(C)(C)O)n1 [Adavosertib] + Cc1cc(Nc2cc(N3CCN(C)CC3)nc(Sc3ccc(NC(=O)C4CC4)cc3)n2)n[nH]1 [Tozasertib] (partner 0.1 µM)
Method in brief: as §1

Nelarabine + Bortezomib = compound: COc1nc(N)nc2c1ncn2[C@@H]1O[C@H](CO)[C@@H](O)[C@@H]1O [Nelarabine] + CC(C)C[C@H](NC(=O)[C@H](Cc1ccccc1)NC(=O)c1cnccn1)B(O)O [Bortezomib] (partner 0.002 µM)
Method in brief: as §1

Adavosertib + Phenformin = compound: C=CCn1c(=O)c2cnc(Nc3ccc(N4CCN(C)CC4)cc3)nc2n1-c1cccc(C(C)(C)O)n1 [Adavosertib] + N=C(N)NC(=N)NCCc1ccccc1 [Phenformin] (partner 250 µM)
Method in brief: as §1

Row | Cell Line | relative viability (Nelarabine + Lapatinib; first compound 0.01 µM) | relative viability (Nelarabine + Lapatinib; first compound 0.03162 µM) | relative viability (Nelarabine + Lapatinib; first compound 0.1 µM) | relative viability (Nelarabine + Lapatinib; first compound 0.3162 µM) | relative viability (Nelarabine + Lapatinib; first compound 1 µM) | relative viability (Adavosertib + Tozasertib; first compound 0.01 µM) | relative viability (Adavosertib + Tozasertib; first compound 0.03162 µM) | relative viability (Adavosertib + Tozasertib; first compound 0.1 µM) | relative viability (Adavosertib + Tozasertib; first compound 0.3162 µM) | relative viability (Nelarabine + Bortezomib; first compound 0.01 µM) | relative viability (Nelarabine + Bortezomib; first compound 0.03162 µM) | relative viability (Nelarabine + Bortezomib; first compound 0.1 µM) | relative viability (Nelarabine + Bortezomib; first compound 0.3162 µM) | relative viability (Nelarabine + Bortezomib; first compound 1 µM) | relative viability (Adavosertib + Phenformin; first compound 0.01 µM) | relative viability (Adavosertib + Phenformin; first compound 0.03162 µM) | relative viability (Adavosertib + Phenformin; first compound 0.1 µM) | relative viability (Adavosertib + Phenformin; first compound 0.3162 µM)
1 | NCI-H1650 | 0.882 | 0.834 | 0.783 | 0.831 | 0.826 | 0.415 | 0.464 | 0.563 | 0.299 | 0.173 | 0.213 | 0.231 | 0.196 | 0.233 | 0.361 | 0.392 | 0.445 | 0.205
2 | NCI-H2023 | 1.48 | 1.15 | 0.642 | 0.812 | 0.948 | 0.453 | 0.391 | 0.414 | 0.266 | 1.28 | 1.08 | 0.864 | 1.04 | 0.934 | 0.437 | 0.389 | 0.358 | 0.193
3 | COR-L23 | 1.39 | 1.17 | 1.12 | 1.02 | 0.982 | 0.24 | 0.236 | 0.23 | 0.162 | 1.33 | 1.08 | 1.08 | 0.942 | 0.983 | 0.433 | 0.465 | 0.442 | 0.267
4 | LCLC-97TM1 | 0.854 | 0.778 | 0.667 | 0.818 | 1.14 | 0.22 | 0.245 | 0.195 | 0.383 | 1.05 |  | 0.716 | 0.634 | 0.205 | 0.428 | 0.397 | 0.488 | 0.417
5 | NCI-H1734 | 1.23 | 1.22 | 1.09 | 1.08 | 1.06 | 0.257 | 0.24 | 0.252 | 0.266 | 1.1 | 0.961 | 0.949 | 0.9 | 0.955 | 0.411 | 0.367 | 0.374 | 0.264
6 | NCI-H1437 | 1.06 | 0.83 | 0.815 | 0.839 | 0.79 | 0.415 | 0.389 | 0.433 | 0.421 | 0.678 | 0.523 | 0.553 | 0.479 | 0.444 | 0.388 | 0.308 | 0.275 | 0.285
7 | NCI-H727 | 0.909 | 0.896 | 0.922 | 0.74 | 0.829 | 0.674 | 0.504 | 0.546 | 0.641 | 1.09 | 0.768 | 0.869 | 0.95 | 0.795 | 0.543 | 0.593 | 0.531 | 0.565
8 | NCI-H1651 | 1.1 | 1.02 | 1.05 | 0.881 | 0.854 | 0.7 | 0.702 | 0.832 | 0.668 | 1 | 0.873 | 1.02 | 0.977 | 0.817 | 0.3 | 0.354 | 0.31 | 0.237
9 | NCI-H838 | 1.38 | 1.07 | 0.934 | 1.16 | 1.14 | 0.237 | 0.268 | 0.328 | 0.283 | 1.06 | 0.748 | 0.87 | 0.868 | 0.7 | 0.57 | 0.502 | 0.525 | 0.655
10 | NCI-H460 |  | 1.76 | 1.84 | 1.62 | 1.27 | 0.533 | 0.495 | 0.534 | 0.721 |  | 1.34 | 1.69 | 1.37 | 1.1 | 0.523 | 0.566 | 0.493 | 0.317
11 | HCC-78 | 0.731 | 0.779 |  | 0.902 | 0.631 | 0.589 | 0.348 | 0.351 | 0.464 | 0.771 | 0.497 |  | 0.584 | 0.539 | 0.582 | 0.744 | 0.821 | 0.704
12 | SK-LU-1 | 1.24 | 0.617 | 0.887 | 0.94 | 0.885 | 0.371 | 0.321 | 0.302 | 0.174 | 1.56 | 1.02 | 1.61 | 1.1 | 1.13 | 0.57 | 0.484 | 0.458 | 0.223
13 | HOP-62 | 1.35 | 1.08 | 1.18 | 1.11 | 1 | 0.356 | 0.409 | 0.414 | 0.329 | 1.46 | 0.392 | 1.11 | 1.18 | 1.02 | 0.698 | 0.621 | 0.802 | 0.769
14 | NCI-H2228 | 1.1 | 1.1 |  | 0.974 | 0.977 | 0.276 | 0.277 | 0.249 | 0.204 | 1.45 | 1.52 |  | 1.35 | 1.03 | 0.252 | 0.27 | 0.257 | 0.243
15 | NCI-H1755 | 1.27 | 0.937 | 1.09 | 1.29 | 1.1 | 0.649 | 0.581 | 0.682 | 0.535 | 1.02 | 0.971 | 0.947 | 1.03 | 1.03 | 0.643 | 0.615 | 0.613 | 0.63
16 | NCI-H2126 | 0.91 | 0.763 | 0.72 | 0.754 | 0.797 | 0.808 | 0.834 | 0.863 | 0.924 | 1.18 | 1.14 | 1.11 | 1.12 | 1.01 | 0.525 | 0.538 | 0.531 | 0.568
17 | NCI-H596 | 1.15 | 1.13 | 1.27 | 0.892 | 1.07 | 1.03 | 0.826 | 1.02 | 0.93 | 0.906 | 0.651 | 1.28 | 0.96 | 0.982 | 0.662 | 0.909 | 0.754 | 1
18 | ABC-1 | 1.44 | 0.952 | 1.23 | 1.1 | 1.37 | 0.208 | 0.161 | 0.166 | 0.145 | 0.28 | 0.319 | 0.251 | 0.245 | 0.297 | 0.228 | 0.237 | 0.208 | 0.222
